These results are taken from patent US20090170869A1, “PIPERAZINE DERIVATIVE HAVING AFFINITY FOR THE HISTAMINE H3 RECEPTOR” (priority 2007, published 2009).

What is called clearance is the volume of plasma or blood freed of the substance per unit of time. Read a low clearance as a low capacity for elimination. Broadly, the Kd is the constant that tells how readily two partners part at equilibrium. A lower Kd goes with higher affinity. The term koff denotes the first-order rate constant of dissociation.

SMILES strings stand for the structures. Counter-ions that a name gives are not always drawn.

In one data set the test system is rodent models. The note with it: five choice task, object recognition, elevated plus maze, acquisition of novel task, passive avoidance; literature reports; cited from earlier work.
Data set [1] concerns the target T1, brain histamine H3 receptor (Rattus norvegicus, UniProt Q9QYN8).
T1 construct: from tissue; host or cells: cerebral cortex homogenate of adult male Lister hooded rats
Description: Rat ex vivo binding studies - rat brain histamine H3 receptor occupancy ([3H]-R-α-methylhistamine). The class given is in vivo. The settings on record: for inhibition of [3H]-R-α-methylhistamine specific binding to the H3 receptor (surrogate for rat brain H3 receptor occupancy): 10 mg/kg oral; for specific binding of [3H]-R-α-methylhistamine to the H3 receptor: rats n=3, 10 mg/kg oral, mean ± SEM. The method, then: Ex vivo binding studies were carried out to determine brain histamine H3 receptor occupancy in rats at certain time points after oral administration of a test compound.
Adult male rats (Lister hooded 200-250 g, Charles River, UK) received vehicle (1% w/v aqueous methylcellulose) (control) or the test compound (10 mg/kg) by oral gavage (n=3 per group) and were sacrificed 1 or 4 hours following oral dosing. The 1 hour and 4 hour studies were not necessarily done on the same day. Terminal blood samples were collected and brains rapidly removed. Cerebral cortex tissue was dissected from half of each brain for ex vivo binding; the other half brain can be used for pharmacokinetic analysis of brain concentrations of each compound. All dissected tissue samples were snap-frozen in liquid nitrogen, and stored at −80° C. until use. The tissues were rapidly thawed and homogenised in approximately 30 volumes of ice cold assay reaction buffer. The assay reaction buffer contained 50 mM Tris-HCl (made up using Trizma pre-set crystals pH 7.7 @25° C., Sigma cat. No. T8068-250G) and 5 mM EDTA, with a final buffer pH of 7.2 to 7.8, usually about 7.4. The crude homogenate (600-800 μg/well) was then used to measure H3 receptor binding using [^3H]-R-α-methylhistamine as radioligand. Assays measuring total binding of [^3H]-R-α-methylhistamine consisted of 50 μl assay reaction buffer, 400 μl of homogenate (corresponding to 600-800 μg/well) and 50 μl of 2 nM R(−)α-Methyl[imidazole-2,5(n)-3H]histamine dihydrochloride ([^3H]-R-α-methylhistamine; specific activity, 24 Ci mmol^−1, Amersham Biosciences, catalogue no. TRK1017). Incubations with [^3H]-R-α-methylhistamine were for 45 min at 30° C. Non-specific binding of [^3H]-R-α-methylhistamine was determined in parallel using the same assay except that 50 μl of 10 μM imetit (an H3 receptor agonist, e.g. available from Tocris) was used instead of the 50 μl of assay reaction buffer. The experiments were terminated by rapid filtration through Whatman GF/B filters (pre-soaked in 0.3% v/v polyethyleneimine (PEI)), and then the filters were washed through with 4×5 ml of ice cold harvesting buffer. The harvesting buffer contained 50 mM Tris-HCl (from Trizma pre-set crystals pH 7.7 @ 25° C.) and 5 mM MgCl2, with a final buffer pH of 7.2 to 7.8, usually about 7.4. Filters were dried and added to vials each containing 4 ml Ultima Gold MV scintillation fluid (Hewlett Packard) and radioactivity determined by liquid scintillation spectrometry using a Packard Tri-Carb 2500TR liquid scintillation counter.
Specific binding of [^3H]-R-α-methylhistamine to the H3 receptor was determined by the subtraction of the value obtained for non-specific binding from the value obtained for total binding.
Protein concentrations were determined using the Bradford assay method (Bio-Rad
Protein Assay Dye Reagent Concentrate, catalogue no. 500-0006; from Bio-Rad Laboratories GmbH, Heidemannstrasse 164, 80939 Muenchen, Germany; or from Bio-Rad, York, UK) with bovine serum albumin as a standard. Specific radioactivity in the samples was corrected for protein (i.e. per microgram of protein).
The specific binding of [^3H]-R-α-methylhistamine to the H3 receptor is expressed as a mean (n=3 rats)±SEM (standard error of the mean), as a percentage of vehicle-treated control animals. Data is also expressed as inhibition of [^3H]-R-α-methylhistamine specific binding to the H3 receptor, as a surrogate measure for H3 receptor occupancy by the test compound, calculated as 100% minus the % mean specific binding of [^3H]-R-α-methylhistamine to the H3 receptor.

Data set [2] can be described thus: Plasma clearance in the pig-PET study. The class given is in vivo. The note with it: Yorkshire-Landrace, iv, 50 ug/kg, 50 micrograms/kg i.v.
Another data set concerns the target H3 receptor (Sus scrofa, UniProt A0A287B9V8). Put plainly: Pig-PET study with [11C]GSK189254: pig brain H3 receptor occupancy over time and kon-koff limited model. The settings on record: 50 micrograms/kg i.v.; for Measured H3 receptor occupancy @ 10 min: 10 minutes post administration; for Measured H3 receptor occupancy @ 2.5 h: 2.5 hours post administration; for Measured H3 receptor occupancy @ 6 h: 6 hours post administration; for Kd: Kd (koff/kon); for koff: iv; for koff / kon: Salt B.

Another data set has as its target T2, histamine H3 receptor (Rattus norvegicus, UniProt Q9QYN8).
T2 construct: host or cells: rat cortex
The settings on record: following oral administration to the rat; Medhurst et al. 2007; cited from earlier work.

A further data set concerns rats. The note with it: at certain oral doses; passive avoidance, water maze, object recognition, attentional set shift; Medhurst et al. 2007; cited from earlier work.
Data set [3] is described as follows: Preliminary HCl-salt-formation and crystallisation experiments (crystal form stability). The class given is physicochemical. The note with it: hydrochloride salt crystal forms; without being bound by theory. The source says: Crystalline Form 1 (or a predominance of crystalline Form 1) is often formed initially depending on the conditions, but, depending on the conditions (such as the type of solvent and the solubility of crystalline Form 1 in it, and/or the temperature and/or temperature time course, and/or the contact time of the crystalline Form 1 with the solvent), the crystalline Form 1 can then often convert to crystalline Form 2 to a greater or lesser extent when in contact with a suitable solvent i.e. a solvent suitable for converting crystalline Form 1 to crystalline Form 2.

Setting [4] is: mean ± standard deviation, n=3 pigs.
Setting [5] is: average model (from average plasma data and average occupancy).

T1 sequence (Q9QYN8 whole entry): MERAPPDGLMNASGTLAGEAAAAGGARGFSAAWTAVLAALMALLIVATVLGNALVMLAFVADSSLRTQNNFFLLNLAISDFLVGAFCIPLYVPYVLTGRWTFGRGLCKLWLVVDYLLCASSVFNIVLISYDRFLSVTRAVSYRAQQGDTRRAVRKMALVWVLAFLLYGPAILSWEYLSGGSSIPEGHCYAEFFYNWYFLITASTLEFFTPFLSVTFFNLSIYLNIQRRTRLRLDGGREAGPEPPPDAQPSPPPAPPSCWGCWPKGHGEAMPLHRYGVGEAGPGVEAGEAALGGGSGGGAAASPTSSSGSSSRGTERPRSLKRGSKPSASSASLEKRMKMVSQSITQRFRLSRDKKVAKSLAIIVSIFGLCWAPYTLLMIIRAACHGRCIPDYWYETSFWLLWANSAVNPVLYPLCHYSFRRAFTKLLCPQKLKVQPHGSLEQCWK
H3 receptor, sequence (A0A287B9V8 1-448): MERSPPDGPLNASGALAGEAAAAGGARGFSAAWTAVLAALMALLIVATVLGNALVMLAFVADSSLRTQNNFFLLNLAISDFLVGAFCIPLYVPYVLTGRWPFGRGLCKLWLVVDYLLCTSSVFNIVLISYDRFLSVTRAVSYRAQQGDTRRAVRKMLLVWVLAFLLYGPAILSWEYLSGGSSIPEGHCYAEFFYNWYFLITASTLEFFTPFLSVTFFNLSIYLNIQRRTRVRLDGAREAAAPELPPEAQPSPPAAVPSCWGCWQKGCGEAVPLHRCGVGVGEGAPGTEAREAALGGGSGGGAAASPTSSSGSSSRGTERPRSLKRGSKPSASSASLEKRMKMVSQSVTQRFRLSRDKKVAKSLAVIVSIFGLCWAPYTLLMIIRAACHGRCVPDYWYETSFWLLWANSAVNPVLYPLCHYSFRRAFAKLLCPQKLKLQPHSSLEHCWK
T2 sequence (Q9QYN8 whole entry): as the sequence (Q9QYN8 whole entry) above

For the molecule `S=C(NC1CCCCC1)N1CCC(c2cnc[nH]2)CC1` [thioperamide], the “cognitive effect in rodent models” value in the data set with rodent models was “cognitive enhancing properties”.

`CC(C)N1CCCN(C(=O)c2ccc(OC3CCOCC3)cc2)CC1` [Salt B, reference compound]: the “inhibition of [3H]-R-α-methylhistamine specific binding to the H3 receptor (surrogate for rat brain H3 receptor occupancy)” value in data set [1] (1 hour after dosing) was “about 60%”; in data set [1] (4 hours after dosing) it was “about 12%”. The “specific binding of [3H]-R-α-methylhistamine to the H3 receptor” value in data set [1] (sacrificed 1 hour after dosing) is given as 40%+4%; in data set [1] (sacrificed 4 hours after dosing) it was 88%+6%. In addition, the clearance in data set [2] (average model (from average plasma data)) was 48.3 mL/min; in data set [2] (mean of pigs 1-3), 46.7 mL/min; in data set [2] (pig 1), 60 mL/min; in data set [2] (pig 2), 30 mL/min; in data set [2] (pig 3) it was 46.7 mL/min. Moreover, the “Measured H3 receptor occupancy @ 10 min” value on H3 receptor (setting [4]) was 63% ± 10%; at H3 receptor (pig 1), 51%; on H3 receptor (pig 2) it was 69%; on H3 receptor (pig 3) it was 68%. The “Measured H3 receptor occupancy @ 2.5 h” value on H3 receptor (setting [4]) is recorded as 37% ± 16%; at H3 receptor (pig 1), 19%; on H3 receptor (pig 2), 49%; at H3 receptor (pig 3) it was 43%. Besides, the “Measured H3 receptor occupancy @ 6 h” value at H3 receptor (setting [4]) was 33% ± 4%; at H3 receptor (pig 1), 30%; at H3 receptor (pig 2), 32%; on H3 receptor (pig 3), 38%. In addition, the equilibrium dissociation constant (Kd) was 5.2 nM at H3 receptor (setting [5]); 4.76 nM at H3 receptor (mean of pigs 1-3); 5.6 nM at H3 receptor (pig 1, in vivo PK/RO model); 5.05 nM at H3 receptor (pig 2, in vivo PK/RO model); 3.61 nM at H3 receptor (pig 3, in vivo PK/RO model). The koff was 5.5e-05 s⁻¹ on H3 receptor (PIG1, pig, pig 1, estimated model parameter); 7.5e-05 s⁻¹ at H3 receptor (pig, average model (from average plasma data and average occupancy)); 6.33e-05 s⁻¹ on H3 receptor (pig, mean of pigs 1-3); 7e-05 s⁻¹ at H3 receptor (pig, pig 2, estimated model parameter); 6.5e-05 s⁻¹ at H3 receptor (pig, pig 3, estimated model parameter). The kon was 0.0025 min⁻¹ at H3 receptor (setting [5]); 0.0024 min⁻¹ at H3 receptor (mean of pigs 1-3); 0.0017 min⁻¹ on H3 receptor (pig 1, estimated model parameter); 0.0024 min⁻¹ on H3 receptor (pig 2, estimated model parameter); 0.0031 min⁻¹ at H3 receptor (pig 3, estimated model parameter).

On to `NC(=NCc1ccc(Cl)cc1)SCCCc1cnc[nH]1` [clobenpropit], for which the “cognitive effect in rodent models” value with rodent models is recorded as “cognitive enhancing properties”.

On to `CC(C)(C)CCC#C[C@@H]1C[C@H]1c1c[nH]cn1` [GT-2331], for which the “cognitive effect in rodent models” value in the data set with rodent models is “cognitive enhancing properties”.

Turning to `O=C(c1ccc(OCCCc2cnc[nH]2)cc1)C1CC1` [ciproxifan], the “cognitive effect in rodent models” value with rodent models is listed as “cognitive enhancing properties”.

As to `CNC(=O)c1ccc(Oc2ccc3c(c2)CCN(C2CCC2)CC3)nc1` [GSK189254], on histamine H3 receptor, the “[3H]R-α-methylhistamine ex vivo binding in the rat cortex” value is “inhibited”. Further, the “performance of rats in cognition paradigms” value in the data set with rats is on record as “improved performance”.

Regarding `CC(C)N1CCN(C(=O)c2ccc(OC3CCOCC3)cc2)CC1` [Example 3], in data set [3], the “thermodynamic stability relative to crystalline Form 1” value is on record as “more thermodynamically stable than crystalline Form 1”.
